How the values were obtained:
[1] = Evaluated for taste quality, NS means not sweet
[2] = species on record: Homo sapiens; experiment: Activity expressed by taste potency (taste intensity relative to sucrose on a mole/mole basis); assay type: functional
[3] = species on record: Homo sapiens; experiment: Taste quality; assay type: functional
[4] = The activity was expressed by the logarithm of the taste potency as measure of taste intensity relative to that of sucrose on a mole/mole basis;T = tasteless
[5] = The activity was expressed by the logarithm of the taste potency as measure of taste intensity relative to that of sucrose on a mole/mole basis; NI means not isolated
[6] = Evaluated for taste quality,
[7] = The activity was expressed by the logarithm of the taste potency as measure of taste intensity relative to that of sucrose on a mole/mole basis; I means insoluble

| Compound | Log A [2] | Log sweet/bitter [3] | further results |
| --- | --- | --- | --- |
| CC(C)(OCC(=O)O)C1CC=C(/C=N/O)CC1 (centres undefined) [listing 1 of 2 here] | – | – | Log sweet/bitter [1]: Not sweet |
| O/N=C/C1=CCCC1 | 1.74 | – | – |
| O/N=C/C1=CCCOC1 | 0.3 | – | – |
| C=CC1C=C(/C=N/O)CCC1 (centres undefined) | 2.24 | -0.39 | – |
| CC1CC=C(/C=N/O)CC1 (centres undefined) | 2.4 | -0.1 | – |
| O/N=C/C1=CCSCC1 | 1.3 | – | – |
| COC(C)(CO)C1CC=C(/C=N/O)CC1 (centres undefined) | 1.04 | -1.4 | – |
| COCCC1CC=C(/C=N/O)CC1 (centres undefined) | – | – | Log A [4]: Tasteless |
| C/C=C(C)/C(C)=N/O | 2.15 | – | – |
| CCCc1ccc([N+](=O)[O-])cc1N | 3.02 | – | – |
| Nc1cc([N+](=O)[O-])ccc1F | 1.26 | – | – |
| Nc1cc([N+](=O)[O-])ccc1O [2-AMINO-4-NITROPHENOL] | 1.96 | – | – |
| COC(C)C1=CCC=C(/C=N/O)C1 (centres undefined) | 1.96 | – | Log sweet/bitter [1]: Not sweet |
| CC(C)(OCC(=O)[O-])C1CC=C(/C=N/O)CC1.[Na+] (centres undefined) | 1 | – | – |
| CC1=CC=C(/C=N/O)CC1 | 2.18 | 0.23 | – |
| Nc1cc([N+](=O)[O-])ccc1Br | 2.71 | – | – |
| O/N=C/C1=CCC=CC1 | 2.3 | – | – |
| Cc1ccc([N+](=O)[O-])cc1N | 2.17 | – | – |
| CC1CC=C(/C=N/O)C(C)O1 (centres undefined) | 1 | – | Log sweet/bitter [1]: Not sweet |
| COCC/C=C(C)/C=N/O | 0.6 | – | – |
| Nc1cc([N+](=O)[O-])ccc1Cl | 2.31 | – | – |
| C/C(=N\O)C1=CCCCC1 | 2.61 | – | Log sweet/bitter [1]: Not sweet |
| CCCOc1ccc(C#N)cc1N | 3.11 | – | – |
| CO/N=C(/C)C1CC=C(/C=N/O)CC1 (centres undefined) | 1.9 | – | – |

| Compound | Log A [2] | Log sweet/bitter [3] | further results |
| --- | --- | --- | --- |
| C=C(C)C1CC=C(/C=N/O)CC1 (centres undefined) | 2.57 | 0.38 | – |
| CC(C)(OCC(=O)O)C1CC=C(/C=N/O)CC1 (centres undefined) [listing 2 of 2 here] | 1.98 | 0.15 | – |
| COCC(OC)C1CC=C(/C=N/O)CC1 (centres undefined) | 0.9 | – | Log sweet/bitter [1]: Not sweet |
| O/N=C/C1=CC=CCC1 | 1.95 | – | – |
| CCCOc1ccc([N+](=O)[O-])cc1N | 3.46 | – | – |
| N#Cc1cccc(N)c1 | 0.94 | – | – |
| COCC1CCC=C1/C=N/O (centres undefined) | 1.52 | -0.12 | – |
| CCOc1ccc([N+](=O)[O-])cc1N | 2.87 | – | – |
| CC(C)Oc1ccc([N+](=O)[O-])cc1N | 2.54 | – | – |
| COCC1CC=C(/C=N/O)CC1 (centres undefined) | 1.72 | 0.38 | – |
| C=COc1ccc([N+](=O)[O-])cc1N | 3.06 | – | – |
| N#Cc1ccc(Cl)c(N)c1 | 2.13 | – | – |
| COCC(C)(OC)C1CC=C(/C=N/O)CC1 (centres undefined) | 1.7 | – | – |
| COCC1=CCC=C(/C=N/O)C1 | 2.15 | – | Log sweet/bitter [1]: Not sweet |
| O/N=C/C1=CCOCC1 | 0.18 | – | – |
| C/C=C(C)/C=N/O | 1.6 | – | – |
| COCC1=CC=C(/C=N/O)CC1 | – | – | Log A [5]: Not isolated |
| C=CC1CC=C(/C=N/O)CC1 (centres undefined) | 3.06 | 0.7 | – |
| CCOC1CC=C(/C=N/O)CC1 (centres undefined) | 1.2 | 0.21 | – |
| COCC1CC=C(/C=N/O)C1 (centres undefined) | 1.38 | 0.64 | – |
| CCOc1ccc(C#N)cc1N | 2.63 | – | – |
| O/N=C/C1=CC2C=CC1CC2 (centres undefined) | 2.51 | – | Log sweet/bitter [1]: Not sweet |
| COC(C)C1=CC=C(/C=N/O)CC1 (centres undefined) | 2.13 | 0.97 | – |
| CC(=O)C1CC=C(/C=N/O)CC1 (centres undefined) | 1.08 | 0.22 | – |

| Compound | Log A [2] | Log sweet/bitter [3] | further results |
| --- | --- | --- | --- |
| COC(C)C1=CCC(/C=N/O)=CC1 (centres undefined) | 2.48 | 1.96 | – |
| Nc1cccc([N+](=O)[O-])c1 [3-NITROANILINE] | 1.21 | – | – |
| CC(C)(O)C1CC=C(/C=N/O)CC1 (centres undefined) | 0.9 | – | Log sweet/bitter [6]: -0.66 |
| C=C(C)/C=N/O | 0.9 | – | – |
| Nc1cc([N+](=O)[O-])ccc1I | 2.98 | – | – |
| COCC1=CCC(/C=N/O)=CC1 | 2.35 | 1.65 | – |
| CC1=CCC(/C=N/O)=CC1 | 2.7 | 1.42 | – |
| COC(C)C1CC=C(/C=N/O)CC1 (centres undefined) | 1.9 | 0.4 | – |
| CC1(C2CC=C(/C=N/O)CC2)CO1 (centres undefined) | 1.7 | – | – |
| COC1CC=C(/C=N/O)CC1 (centres undefined) | 0.9 | 0.21 | – |
| O/N=C/C1=COCCC1 | 0.48 | – | – |
| COCCOCC1CC=C(/C=N/O)CC1 (centres undefined) | – | – | Log A [7]: Insoluble |
| CC(O)(CO)C1CC=C(/C=N/O)CC1 (centres undefined) | 1.48 | -1.15 | – |
| CC(C)C1=CCC(/C=N/O)=CC1 | 2.51 | -0.07 | – |
| N#Cc1ccc(Br)c(N)c1 | 2.46 | – | – |
| COc1ccc([N+](=O)[O-])cc1N | 2.21 | – | – |
| O/N=C/C1=CCCCC1 | 1.74 | – | – |
| COC(C)C1CCC=C(/C=N/O)C1 (centres undefined) | 1.45 | -1.4 | – |
| COCCCC/C=C(C)/C=N/O | 1.23 | – | – |
| COCC(C)(O)C1CC=C(/C=N/O)CC1 (centres undefined) | 0.6 | -1.05 | – |
| CCCCOc1ccc([N+](=O)[O-])cc1N | 2.79 | – | – |
| COc1ccc(C#N)cc1N | 1.89 | – | – |

Source: ChEMBL document CHEMBL1121410, “Structure--taste relationship of perillartine and nitro- and cyanoaniline derivatives” (J Med Chem, 1980)
